From the NIST ThermoML archive (doi:10.1021/je300148f)

Conditions: Liquid, isochoric method

CCC [propane]
Conditions | mass density [kg/m3]
207.35 K, 1466.9 kPa | 609.37
208.31 K, 2745.8 kPa | 609.32
209.06 K, 3635.6 kPa | 609.28
209.75 K, 4364.7 kPa | 609.25
215.17 K, 10724 kPa | 608.98
222.43 K, 1045.6 kPa | 592.03
222.75 K, 19646 kPa | 608.63
223.37 K, 2016.7 kPa | 591.98
224.52 K, 3087.1 kPa | 591.93
225.47 K, 4153.8 kPa | 591.89
226.91 K, 5632.5 kPa | 591.82
231.06 K, 30008 kPa | 608.23
231.07 K, 10051 kPa | 591.62
239.51 K, 39217 kPa | 607.87
240.49 K, 1194 kPa | 571.45
240.67 K, 19671 kPa | 591.21
240.92 K, 1528.8 kPa | 571.44
242.87 K, 3265.5 kPa | 571.39
244.55 K, 4758.9 kPa | 571.35
245.44 K, 5554 kPa | 571.33
250.1 K, 9711.4 kPa | 571.2
250.12 K, 29984 kPa | 590.79
251.11 K, 51133 kPa | 607.38
259.96 K, 1060.8 kPa | 547.54
261.06 K, 19770 kPa | 571.13
261.18 K, 40016 kPa | 590.35
261.19 K, 1975 kPa | 547.51
262.52 K, 2951.9 kPa | 547.48
262.52 K, 3059.7 kPa | 547.47
263.78 K, 4004 kPa | 547.44
265.28 K, 5120.2 kPa | 547.4
266.44 K, 5840.1 kPa | 547.37
267.87 K, 6954.7 kPa | 547.34
270.11 K, 49092 kPa | 589.98
270.22 K, 1044.7 kPa | 533.77
271.68 K, 2041.5 kPa | 533.71
272.12 K, 10829 kPa | 547.66
272.12 K, 30057 kPa | 570.94
272.13 K, 10235 kPa | 547.22
273.11 K, 3025.3 kPa | 533.66
274.51 K, 3979.1 kPa | 533.61
276.2 K, 5186.1 kPa | 533.54
283.08 K, 995.2 kPa | 515.52
283.43 K, 38987 kPa | 570.26
283.64 K, 10260 kPa | 533.26
284.77 K, 2002.1 kPa | 515.46
284.98 K, 19876 kPa | 546.88
286.56 K, 3090.5 kPa | 515.39
288.23 K, 4086.1 kPa | 515.33
289.9 K, 5086.2 kPa | 515.27
295.92 K, 49573 kPa | 569.78
297.68 K, 1075 kPa | 493.21
298.14 K, 10031 kPa | 514.99
298.15 K, 10038 kPa | 514.99
298.15 K, 19981 kPa | 532.71
298.15 K, 30027 kPa | 546.51
298.15 K, 30100 kPa | 546.7
298.18 K, 19921 kPa | 532.75
298.19 K, 20084 kPa | 532.74
299.62 K, 2037.9 kPa | 493.14
301.57 K, 3036.9 kPa | 493.08
303.56 K, 4053.8 kPa | 493.01
305.53 K, 5060.2 kPa | 492.95
311.44 K, 39238 kPa | 545.97
313.68 K, 30193 kPa | 532.17
315.23 K, 2005.2 kPa | 466.11
315.23 K, 9905.5 kPa | 492.64
315.23 K, 10017 kPa | 492.63
315.23 K, 19842 kPa | 514.41
317.42 K, 2930.2 kPa | 466.04
319.89 K, 3981.7 kPa | 465.97
322.25 K, 4976.5 kPa | 465.9
332.01 K, 29682 kPa | 513.86
333.97 K, 19538 kPa | 492.04
334.14 K, 9861.6 kPa | 465.55
344.57 K, 49972 kPa | 531.11
353.14 K, 29253 kPa | 491.45
353.14 K, 42004 kPa | 513.17
353.15 K, 17921 kPa | 464.99

FC(F)(F)C(F)(F)C(F)(F)F [octafluoropropane]
Conditions | mass density [kg/m3]
203.51 K, 5337.7 kPa | 1748.65
203.54 K, 25066 kPa | 1795.66
207.93 K, 30528 kPa | 1795.05
207.94 K, 10279 kPa | 1747.98
212.07 K, 14905 kPa | 1747.39
212.65 K, 36376 kPa | 1794.41
216.5 K, 40978 kPa | 1793.89
216.54 K, 1000.8 kPa | 1689.31
216.88 K, 20281 kPa | 1746.74
217.62 K, 2018.3 kPa | 1689.13
218.87 K, 3201.2 kPa | 1688.94
220.1 K, 4356.8 kPa | 1688.75
221 K, 5191.7 kPa | 1688.62
221.04 K, 25052 kPa | 1746.18
225.96 K, 30368 kPa | 1745.54
226.4 K, 10304 kPa | 1687.87
230.5 K, 35314 kPa | 1744.96
231.73 K, 15327 kPa | 1687.19
234.92 K, 39898 kPa | 1744.41
235.64 K, 915.8 kPa | 1615.88
236.89 K, 20178 kPa | 1686.54
237.72 K, 1980.7 kPa | 1615.62
239.2 K, 3133.7 kPa | 1615.41
240.32 K, 3992.9 kPa | 1615.26
241.96 K, 25015 kPa | 1685.92
241.97 K, 5288.2 kPa | 1615.05
247.06 K, 29611 kPa | 1685.32
248.4 K, 10248 kPa | 1614.25
253.05 K, 1037.7 kPa | 1548.82
253.35 K, 35422 kPa | 1684.57
254.58 K, 2042.7 kPa | 1548.62
254.84 K, 15219 kPa | 1613.5
256.2 K, 3092.6 kPa | 1548.41
257.67 K, 4032.3 kPa | 1548.23
257.99 K, 39644 kPa | 1684.03
259.38 K, 5163.9 kPa | 1548.03
260.6 K, 5918.9 kPa | 1547.89
261.38 K, 20247 kPa | 1612.75
262.2 K, 6953.3 kPa | 1547.71
264.92 K, 1305.5 kPa | 1498.9
266.69 K, 2167.6 kPa | 1498.5
267.42 K, 10407 kPa | 1547.12
267.61 K, 24742 kPa | 1612.07
268.4 K, 3123.5 kPa | 1498.5
270.01 K, 4060.3 kPa | 1498.31
272.1 K, 5218.8 kPa | 1498.08
273.85 K, 29781 kPa | 1611.39
274.19 K, 14632 kPa | 1546.4
278.85 K, 1048.7 kPa | 1431.66
280.31 K, 34598 kPa | 1610.69
280.62 K, 9990.2 kPa | 1497.18
280.96 K, 2016.5 kPa | 1431.43
282.61 K, 20193 kPa | 1545.52
283.12 K, 3037.6 kPa | 1431.2
285.2 K, 4021.6 kPa | 1430.98
287.19 K, 39685 kPa | 1609.96
287.23 K, 4975.5 kPa | 1430.78
289.39 K, 15154 kPa | 1496.29
290.43 K, 25199 kPa | 1544.72
294.19 K, 1027.2 kPa | 1348.77
296.89 K, 2032 kPa | 1348.25
298.14 K, 10127 kPa | 1429.72
298.14 K, 10227 kPa | 1432.13
298.15 K, 20139 kPa | 1495.43
298.17 K, 30128 kPa | 1543.94
299.56 K, 3026.3 kPa | 1348.25
302.24 K, 4025.2 kPa | 1348
305.19 K, 5144.5 kPa | 1347.73
305.57 K, 34457 kPa | 1543.21
306.47 K, 24759 kPa | 1494.63
308.23 K, 15310 kPa | 1431.18
313.2 K, 39261 kPa | 1542.45
316.93 K, 30165 kPa | 1493.65
318.2 K, 1978.9 kPa | 1206.47
318.2 K, 2006.9 kPa | 1206.47
318.2 K, 10061 kPa | 1346.6
318.2 K, 19323 kPa | 1427.89
318.2 K, 20116 kPa | 1430.27
318.21 K, 9971.7 kPa | 1346.6
322.1 K, 2987.3 kPa | 1206.16
325.72 K, 35057 kPa | 1492.81
326.06 K, 3974.1 kPa | 1205.86
328.08 K, 24771 kPa | 1429.38
329.83 K, 4928.6 kPa | 1205.58
330.81 K, 14738 kPa | 1345.54
332.72 K, 39008 kPa | 1492.14
339.5 K, 7422.8 kPa | 1204.86
341.2 K, 30200 kPa | 1425.83
344.83 K, 20114 kPa | 1344.37
353.16 K, 23269 kPa | 1343.69
353.16 K, 35743 kPa | 1424.77
353.17 K, 10953 kPa | 1203.86
